Source: patent publication US20250360134A1, “6-6 OR 5-6 FUSED BICYCLIC COMPOUNDS COMPRISING A PYRI(MI)DINE RING USEFUL IN THE|TREATMENT OF INFECTIOUS DISEASES” (INSTITUT NATIONAL DE LA SANTE ET DE LA RECHERCHE MEDICALE …, priority 2020, published 2025)
Structures can show the parent of a compound that is named as a salt. Where two headings read alike, the source gives them in different places.

Key:
[1] = Cytotoxicity evaluation, MTT; format: cell-based, human; settings: HepG2 cells (hepatocarcinoma-derived, ATCC HB-8065); human HepG2 cells, 72 hours, MTT
Description: (§1) The aim of this assay was to evaluate the impact of metabolic activation of the tested compounds on cell viability.
(§2) A cytotoxicity evaluation was performed using the method reported in Emami S A et al., Iran J Basic Med Sci 2012; 15:807-11 to determine the cytotoxic concentrations 50% (CC50) and using doxorubicin as a cytotoxic reference compound. These assays were performed in human HepG2 cells. HepG2 cells were purchased from ATCC (ref HB-8065). These cells are a commonly used human hepatocarcinoma-derived cell line that has characteristics similar to those of primary hepatocytes. These cells express many hepatocyte-specific metabolic enzymes, thus enabling the cytotoxicity of tested product metabolites to be evaluated. Briefly, cells in 100 μl of complete RPMI medium [RPMI supplemented with 10% FCS, 1% 1-glutamine (200 mM), penicillin (100 U/ml), and streptomycin (100 μg/ml)] were inoculated into each well of 96-well plates and incubated at 37° C. in a humidified chamber in 6% CO2. After 24 hours, 100 μl of medium with test compound at various concentrations dissolved in DMSO (final concentration less than 0.5% v/v) was added, and the plates were incubated for 72 hours at 37° C. Duplicate assays were performed for each sample. Each well was microscopically examined for precipitate formation before the medium was aspirated from the wells. After aspiration, 100 μl of MTT solution (0.5 mg/ml in medium without FCS) were then added to each well. Cells were incubated for 2 hours at 37° C. MTT solution was removed, and DMSO (100 μl) was added to dissolve the resulting blue formazan crystals. Plates were shaken vigorously (300 rpm) for 5 min. The absorbance was measured at 570 nm with 630 nm as reference wavelength in a BIO-TEK ELx808 Absorbance Microplate Reader. DMSO was used as blank and doxorubicin (Sigma-Aldrich) as positive control. Cell viability was calculated as percentage of control (cells incubated without compound).

[2] = tested on: T. brucei brucei AnTat 1.9; test: In vitro antitrypanosomal activity, Alamar Blue assay; format: cell-based, Trypanosoma brucei brucei; settings: read-out: IC50 T. brucei brucei
Description: The effects of the tested compounds on the growth of T. brucei brucei were assessed using an Alamar Blue® assay described in B. Raz et al., Acta Trop. 1997, 68, 139. T. brucei brucei AnTat 1.9 (IMTA, Antwerpen, Belgium) was cultured in MEM with Earle's salts, supplemented according to the protocol disclosed in T. Baltz et al., EMBO J. 1985, 4, 1273, with the following modifications: 0.5 mM mercaptoethanol (Sigma-Aldrich), 1.5 mM 1-cysteine (Sigma-Aldrich), 0.05 mM bathocuproine sulfate (Sigma-Aldrich), and 20% heat-inactivated horse serum (Gibco, France) at 37° C. and 5% CO2. Samples were incubated at an average density of 2000 parasites/well in sterile 96-well plates (Fisher, France) with various concentrations of compounds dissolved in 0.9% NaCl. All doses were tested in duplicate. Appropriate controls treated with solvents 0.9% NaCl or DMSO or with suramin, pentamidine, eflornithine, and fexinidazole (reference drugs purchased from Sigma-Aldrich and Fluorochem, UK) were added to each set of experiments. After a 69-hour incubation at 37° C., 10 μl of the viability marker Alamar Blue (Fisher) was added to each well, and the plates were incubated for 5 hour. The plates were read in a PerkinElmer ENSPIRE (Germany) microplate reader using an excitation wavelength of 530 nm and an emission wavelength of 590 nm. The IC50 was defined as the concentration of drug necessary to inhibit by 50% the activity of T. brucei brucei compared to the control. IC50 values were calculated using a non-linear regression analysis of dose-response curves performed using GraphPad Prism software (USA). IC50 values were calculated from three independent experiments.

[3] = tested on: SARS-CoV-2; test: microbe, parasite or virus in culture; format: cell-based; settings: Severe acute respiratory syndrome coronavirus 2; A549 cells expressing human ACE2, 72 hours after infection, RT-PCR of the N-gene; read-out: IC50 RTqPCR SARS-CoV-2
[4] = tested on: human telomeric sequence F21T; test: FRET-melting, F21T; settings: K+ condition, 2 μM compound, 0.2 μM oligonucleotide
[5] = tested on: human duplex sequence FdxT; test: FRET-melting, FdxT; settings: duplex control, K+ condition, 2 μM compound, 0.2 μM oligonucleotide
[6] = tested on: Plasmodium telomeric sequence FPf1T; test: FRET-melting, FPf1T; settings: K+ condition, 2 μM compound, 0.2 μM oligonucleotide
[7] = tested on: Plasmodium telomeric sequence FPf8T; test: FRET-melting, FPf8T; settings: K+ condition, 2 μM compound, 0.2 μM oligonucleotide
[8] = tested on: Trypanosoma 9 and 11 chromosomic sequence FTrypBT; test: FRET-melting, FTrypBT; settings: K+ condition, 2 μM compound, 0.2 μM oligonucleotide
[9] = tested on: Plasmodium falciparum W2; test: In vitro antiplasmodial activity, SYBR Green I, strain W2
Description: (§3) The in vitro antiplasmodial activities were tested over concentrations ranging from 39 to 40 μm against culture-adapted Plasmodium falciparum: reference strains 3D7 and W2. […] The parasites were cultivated in RPMI medium (Sigma-Aldrich, Lyon, France) supplemented with 0.5% Albumax I (Life Technologies Corporation, Paisley, UK), hypoxanthine (Sigma-Aldrich), and gentamicin (Sigma-Aldrich) with human erythrocytes and were incubated at 37° C. in a candle jar, as described in Desjardins R E et al., Antimicrob Agents Chemother, 1979; 16:710-18.
(§4) The P. falciparum drug susceptibility test was carried out in 96-well flat bottom sterile plates in a final volume of 250 μL. After a 48-hour incubation with the drugs, quantities of DNA in treated and control cultures of parasites in human erythrocytes were quantified using the SYBR Green I (Sigma-Aldrich) fluorescence-based method as described in Bennett T N et al, Antimicrob Agents Chemother, 2004; 48:1807-10. Briefly, after incubation, plates were frozen at −20° C. until use. Plates were then thawed for 2 hours at room temperature, and 100 μL of each homogenized culture was transferred to a well of a 96-well flat bottom sterile black plate (Nunc, Inc., Rochester, NY) that contained 100 μL of the SYBR Green I lysis buffer (2×SYBR Green, 20 mM Tris base pH 7.5, 5 mM EDTA, 0.008% w/v saponin, 0.08% w/v Triton X-100). […] Plates were incubated for 1 hour at room temperature and then read on a fluorescence plate reader (Tecan, Grödig, Austria) using excitation and emission wavelengths of 485 and 535 nm, respectively. Concentrations inhibiting 50% of the parasite's growth (half maximal inhibitory concentration or IC50 values) were then calculated from the obtained experimental results by non-linear regression analysis of data from dose-response curves, using TableCurve 2D version 5.0 software (Systat Software, San Jose, CA). IC50 values are reported as means calculated from three independent experiments, as described in H. Kaddouri et al., Antimicrob.

[10] = tested on: Plasmodium falciparum 3D7; test: In vitro antiplasmodial activity, SYBR Green I, strain 3D7
Description: as §3, §4

[11] = tested on: HepG2 cells; test: Cytotoxicity evaluation, MTT; format: cell-based, human
Description: as §1, §2

[12] = Plasmodium falciparum, W2, 48 h, read-out: IC50 Plasmodium falciparum W2, chloroquine-resistant strain W2, 48-hour incubation
[13] = Plasmodium falciparum, 3D7, 48 h, read-out: IC50 Plasmodium falciparum 3D7, chloroquine-sensitive strain 3D7, 48-hour incubation

Compound | IC50 at 72 h [1] [µM] | IC50 ([2]; Trypanosoma brucei, 69 h) [nM] | IC50 [3] [nM] | FRET-melting values in K+ conditions at 2 μM ΔTm F21T [4] [°C] | FRET-melting values in K+ conditions at 2 μM ΔTm FdxT [5] [°C] | FRET-melting values in K+ conditions at 2 μM ΔTm FPf1T [6] [°C] | FRET-melting values in K+ conditions at 2 μM ΔTm FPf8T [7] [°C] | FRET-melting values in K+ conditions at 2 μM ΔTm FtryBT [8] [°C] | IC50 [9, 12] [nM] | IC50 [10, 13] [nM] | IC50 [11] [µM] | IC50 ([2]; 69-hour incubation, Alamar Blue) [nM] | IC50 ([9]; read-out: IC50 Plasmodium falciparum W2, chloroquine-resistant strain W2, 48-hour incubation) [nM] | IC50 ([10]; read-out: IC50 Plasmodium falciparum 3D7, chloroquine-sensitive strain 3D7, 48-hour incubation) [nM]
CN(C)CCCNCc1ccc(-c2nc(-c3ccc(CNCCCN(C)C)cc3)c3ccn(-c4ccc(CNCCCN(C)C)cc4)c3n2)cc1 [Compound 13B, 2,4,7-Tri{4-[(3-dimethylaminopropyl)aminomethyl]phenyl}-7H-pyrrolo[2,3-d]pyrimidine oxalate] | 26.7 | 860 ± 70 | 170 | 29.1 | 5.4 | 33.1 | 34.6 | 30.7 | 10600 ± 690 | 2440 ± 1270 | – | – | – | –
CN(C)CCCCCNCc1ccc(-c2nc(-c3ccccc3)c3ccn(-c4ccc(CNCCCCCN(C)C)cc4)c3n2)cc1 [Compound 35B, oxalate] | – | – | 560 | 27.23 | 3.49 | 25.4 | 33.76 | 21.55 | 4740 ± 900 | 6760 ± 470 | – | – | – | –
CN(C)CCCNCc1ccc(-c2nc(-c3ccc(CNCCCN(C)C)cc3)c3ccn(-c4ccccc4)c3n2)cc1 [Compound 1B, 2,4-bis{4-[(3-dimethylaminopropyl)aminomethyl]phenyl}-7-phenyl-7H-pyrrolo[2,3-d]pyrimidine oxalate] | 1.65 | 550 ± 70 | 330 | 22.8 | 1.2 | 23.6 | 23.5 | 20.5 | 2710 ± 140 | 2220 ± 120 | – | – | – | –
CN(C)CCCNCc1ccc(-c2nc(-c3ccc(CNCCCN(C)C)s3)c3ccn(-c4ccccc4)c3n2)cc1 [Compound 6B, 2-{4-[(3-Dimethylaminopropyl)aminomethyl]phenyl}-4-{5-[(3-dimethylaminopropyl)aminomethyl]thien-2-yl}-7-phenyl-7H-pyrrolo[2,3-d]pyrimidine oxalate] | 1.74 | 140 ± 20 | – | 25.5 | 1.7 | 26.3 | 26.6 | 23.1 | 750 ± 160 | 1210 ± 180 | – | – | – | –
CN(C)CCCNCc1ccc(-c2nc(-c3ccc(CNCCCN(C)C)cc3)c3ccn(C)c3n2)cc1 [Compound 8B, 2,4-bis{4-[(3-dimethylaminopropyl)aminomethyl]phenyl}-7-methyl-7H-pyrrolo[2,3-d]pyrimidine oxalate] | 16.4 | 550 ± 50 | – | 10.9 | −0.2 | 10.3 | 10.6 | 9.4 | 4460 ± 600 | 1950 ± 690 | – | – | – | –
CCN(CC)CCCCNCc1ccc(-c2nc(-c3ccc(CNCCCCN(CC)CC)cc3)c3ccn(-c4ccccc4)c3n2)cc1 [Compound 33B, oxalate] | – | – | 550 | – | – | – | – | – | 700 ± 150 | 2470 ± 190 | – | – | – | –
2-(3-Dimethylaminopropylamino)-4-{4-[(4-dimethylaminopropyl)aminomethyl]phenyl}-7-phenyl-7H-pyrrolo[2,3-d]pyrimidine oxalate [Compound 14B] | – | – | – | – | −0.7 | – | – | – | – | – | 13.5 | 890 ± 90 | 290 ± 100 | 1480 ± 290
CC(C)N(CCCCCNCc1ccc(-c2nc(-c3ccc(CNCCCCCN(C(C)C)C(C)C)cc3)c3ccn(-c4ccccc4)c3n2)cc1)C(C)C [Compound 34B, oxalate] | – | – | 170 | – | – | – | – | – | 770 ± 70 | 930 ± 150 | – | – | – | –
CN1CCN(CCCNCc2ccc(-c3nc(-c4ccc(CNCCCN5CCN(C)CC5)cc4)c4ccsc4n3)cc2)CC1 [Compound 27B, 2,4-Bis{4-[(3-(4-methylpiperazin-1-yl)propyl)aminomethyl]phenyl}thieno[2,3-d]pyrimidine oxalate] | 11.2 | 890 ± 100 | – | 9.72 | −0.10 | 9.6 | 9.0 | 7.9 | 4180 ± 30 | 1950 ± 680 | – | – | – | –
